Test results: US20080015240A1, “Acid Salt of Benzimidazole Derivative and Crystal Thereof” (priority 2004, published 2008)
Converted amounts (≈) assume the structure as drawn. Structures can show the parent of a compound that is named as a salt.

Tests used:
[1] = order in stability among crystal forms by solvent-mediated transformation of a mixture of crystals; assay type: physicochemical; conditions: order may change depending on the solvent and temperature
Source text: The order in stability among the crystal forms of each acid salt can be examined by solvent-mediated transformation of a mixture of crystals, but the order may change depending on the solvent and temperature. […]. […] […].

[2] = solubility according to the General Rules of the Japanese Pharmacopoeia 14th Edition; assay type: physicochemical; conditions: for solubility in Solution 1: Solution 1 of the Japanese Pharmacopoeia; for solubility in Solution 1 / solubility in Solution 2: 20±5° C. within 30 minutes; for solubility in Solution 2: Solution 2 of the Japanese Pharmacopoeia; for solubility in Water: powder shaken 30 seconds every 5 minutes at 20±5° C. within 30 minutes
Protocol: […]. In accordance with the General Rules of the Japanese Pharmacopoeia 14th Edition, solubility (μg/mL) herein refers to an amount of a substance dissolved in a solvent after the substance in powder is placed in the solvent and the sample is shaken strongly for 30 seconds every 5 minutes at 20±5° C. within 30 minutes.

**Q.** With `Cc1cccc2scc(Cn3c(SCCCC(=O)O)nc4ccccc43)c12.Cl` [Crystal-HB, 4-(1-((4-methylbenzothiophen-3-yl)methyl)benzimidazol-2-ylthio)butanoic acid hydrochloride] as the molecule, how does the “relative stability of crystal form” value [1] read?
**A.** more stable than the other crystal forms

**Q.** Which results are given for `Cc1cccc2scc(Cn3c(SCCCC(=O)O)nc4ccccc43)c12` [Crystal-SF, 4-(1-((4-methylbenzothiophen-3-yl)methyl)benzimidazol-2-ylthio)butanoic acid sulfate]?
**A.** relative stability of crystal form ([1]; sulfate): close to that of crystal-SA; solubility in Solution 1 ([2]; sulfate): 7.6 µg/mL; solubility in Solution 2 ([2]; sulfate): 74.0 µg/mL; solubility in Water ([2]; sulfate): 0.1 µg/mL

**Q.** With `Cc1cccc2scc(Cn3c(SCCCC(=O)O)nc4ccccc43)c12` [Crystal A, 4-(1-((4-methylbenzothiophen-3-yl)methyl)benzimidazol-2-ylthio)butanoic acid, reference compound] as the molecule, how does the “solubility in Solution 1” value [2] read?
**A.** 2.5 µg/mL (≈ 6.3 µM)

**Q.** And the “solubility in Solution 2” value [2]?
**A.** 1.9 µg/mL (≈ 4.79 µM)

**Q.** Which “solubility in Solution 1” value ([2]; sulfate) does the source give for `Cc1cccc2scc(Cn3c(SCCCC(=O)O)nc4ccccc43)c12` [Crystal-SB, 4-(1-((4-methylbenzothiophen-3-yl)methyl)benzimidazol-2-ylthio)butanoic acid sulfate] here?
**A.** 19.8 µg/mL

**Q.** What about the “solubility in Solution 2” value ([2]; sulfate) of the same molecule?
**A.** 24.2 µg/mL

**Q.** And the “solubility in Water” value ([2]; sulfate)?
**A.** 0.8 µg/mL

**Q.** For `Cc1cccc2scc(Cn3c(SCCCC(=O)O)nc4ccccc43)c12` [Crystal-SA, 4-(1-((4-methylbenzothiophen-3-yl)methyl)benzimidazol-2-ylthio)butanoic acid sulfate], which “solubility in Solution 1” value ([2]; sulfate) is on record?
**A.** 8.6 µg/mL

**Q.** What about the “solubility in Solution 2” value ([2]; sulfate) of the same molecule?
**A.** 67.3 µg/mL

**Q.** For `Cc1cccc2scc(Cn3c(SCCCC(=O)O)nc4ccccc43)c12` [Crystal-SG, 4-(1-((4-methylbenzothiophen-3-yl)methyl)benzimidazol-2-ylthio)butanoic acid sulfate], which “relative stability of crystal form” value ([1]; sulfate) is on record?
**A.** less stable than crystal-SF

**Q.** What does the source list for `Cc1cccc2scc(Cn3c(SCCCC(=O)O)nc4ccccc43)c12` [Crystal-SC, 4-(1-((4-methylbenzothiophen-3-yl)methyl)benzimidazol-2-ylthio)butanoic acid sulfate]?
**A.** relative stability of crystal form ([1]; sulfate): more stable than the other four crystal forms; solubility in Solution 1 ([2]; sulfate): 10.6 µg/mL; solubility in Solution 2 ([2]; sulfate): 72.4 µg/mL; solubility in Water ([2]; sulfate): 0.1 µg/mL
